# pKi: −log10 of the molar value.
# Key:
# [1] = Inhibitory activity against Beta-glucosidase from Almond; parameters: species or system Prunus dulcis
# [2] = Inhibitory activity against Beta-glucosidase from Yeast; parameters: species or system Saccharomyces cerevisiae
# [3] = Inhibitory activity against Beta-glucosidase from E-coli; parameters: species or system Escherichia coli
compound,measurement,setting,value
OCC1O/C(=N\O)C(O)C(O)C1O (centres undefined),pKi,[1],4.00
O=[N+]([O-])c1ccc(O/N=C2\OC(CO)C(O)C(O)C2O)c([N+](=O)[O-])c1 (centres undefined),pKi,[1],4.10
same,pKi,[2],5.60
same,pKi,[3],3.92

# Reference: ChEMBL document CHEMBL1128813, “Inhibitors of glucosidases with related structures and inverse specificity” (Bioorg Med Chem Lett, 1995)
